# Target: T1, Calpain-1 catalytic subunit (Homo sapiens, UniProt P07384)
# T1 sequence (P07384 whole entry): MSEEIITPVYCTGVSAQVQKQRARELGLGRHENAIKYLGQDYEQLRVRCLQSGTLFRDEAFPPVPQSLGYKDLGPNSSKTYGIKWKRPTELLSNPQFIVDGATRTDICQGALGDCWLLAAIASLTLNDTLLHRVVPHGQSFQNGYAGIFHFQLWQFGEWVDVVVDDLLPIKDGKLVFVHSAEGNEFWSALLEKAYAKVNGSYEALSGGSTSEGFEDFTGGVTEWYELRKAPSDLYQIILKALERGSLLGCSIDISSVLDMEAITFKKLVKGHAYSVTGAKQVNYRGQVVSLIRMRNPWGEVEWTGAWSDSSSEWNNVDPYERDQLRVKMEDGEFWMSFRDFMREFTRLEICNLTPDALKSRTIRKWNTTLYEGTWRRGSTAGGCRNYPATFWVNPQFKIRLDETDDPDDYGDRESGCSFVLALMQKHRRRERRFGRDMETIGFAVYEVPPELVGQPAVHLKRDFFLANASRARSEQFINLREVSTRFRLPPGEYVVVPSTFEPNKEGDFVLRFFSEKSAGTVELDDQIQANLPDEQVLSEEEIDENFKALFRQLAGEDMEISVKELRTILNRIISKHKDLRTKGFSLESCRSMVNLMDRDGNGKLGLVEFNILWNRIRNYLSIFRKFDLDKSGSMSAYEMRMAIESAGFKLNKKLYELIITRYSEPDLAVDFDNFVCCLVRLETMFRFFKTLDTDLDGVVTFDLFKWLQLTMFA
# Assay: Inhibition of human mu-calpain
row,SMILES,IC50
1,Cc1c(C(=O)N[C@@H](Cc2ccccc2)C(=O)C(N)=O)oc2ccccc2c1=O,0.04 µM
2,Cc1c(C(=O)N[C@@H](Cc2ccccc2)C(=O)C(=O)NCc2ccccc2)[nH]c2ccccc2c1=O,5.01 µM
3,COc1ccc(CNC(=O)C(=O)[C@H](Cc2ccccc2)NC(=O)c2[nH]c3ccccc3c(=O)c2C)cc1OC,1.78 µM
4,Cc1c(C(=O)N[C@@H](Cc2ccccc2)C(=O)C(=O)NCc2ccc(F)cc2)[nH]c2ccccc2c1=O,5.63 µM
5,Cc1c(C(=O)N[C@@H](Cc2ccccc2)C(=O)C(=O)NCc2ccccn2)nc2ccccc2c1O,7.72 µM
6,COc1ccc(CCNC(=O)C(=O)[C@H](Cc2ccccc2)NC(=O)c2[nH]c3ccccc3c(=O)c2C)cc1,0.73 µM
7,Cc1c(C(=O)N[C@@H](Cc2ccccc2)C(=O)C(=O)NCCc2ccccn2)[nH]c2ccccc2c1=O,6.28 µM
8,Cc1c(C(=O)N[C@@H](Cc2ccccc2)C(=O)C(N)=O)nc2ccccc2c1O,0.71 µM
9,CNC(=O)C(=O)[C@H](Cc1ccccc1)NC(=O)c1[nH]c2ccccc2c(=O)c1C,8.62 µM
10,CCNC(=O)C(=O)[C@H](Cc1ccccc1)NC(=O)c1nc2ccccc2c(O)c1C,40.2 µM
11,COc1ccc(CNC(=O)C(=O)[C@H](Cc2ccccc2)NC(=O)c2nc3ccccc3c(O)c2C)cc1,3.81 µM
12,Cc1c(C(=O)N[C@@H](Cc2ccccc2)C(=O)C(=O)NCCc2ccccc2)nc2ccccc2c1O,3.71 µM
13,Cc1c(C(=O)N[C@@H](Cc2ccccc2)C(=O)C(=O)NC(C)C)nc2ccccc2c1O,> 50 µM

# Source: ChEMBL document CHEMBL1140783, “Design and synthesis of 4-quinolinone 2-carboxamides as calpain inhibitors” (Bioorg Med Chem Lett, 2008)
